In US20070021303A1, “Safening method” (priority 2004, published 2007):

Experiments:
onion [1] = assay: Post-emergence application of herbicide and safener by the tank mix method, onion; assay type: in vivo
From the text: (§1) Seeds of onion plants were sown in sandy loam soil in round plastic pots of a diameter of 7 cm and covered with a layer of sandy loam of a thickness of about 0.2 cm. The pots were placed in a greenhouse under favorable growth conditions for until the plants had reached the 2-leaves growth stage. Then, a herbicide or—in a parallel experiment—a tank-mix of the herbicide and a safener (using same basic formulation in each case) was applied to the green parts of the plants and the uncovered part of the soil surface with a spray bar using a water application rate of 300 liters per hectare.
(§2) The pots were placed in a greenhouse under favorable growth conditions. Visual scoring of the herbicidal action was carried out 21 or 40 days after treatment with the herbicide or the tank-mix, respectively. Evaluation was carried out on a percentage basis by comparison with untreated control plants (0%=no noticeable effect compared with the untreated plant, 100%=treated plant dies).

leek [2] = assay: Post-emergence application of herbicide and safener by the tank mix method, leek; assay type: in vivo
From the text: as §1, with “leek” for “onion”
as §2

leek [3] = assay: Seed treatment of leek with safener (encrustment method), early post-emergence application of ioxynil; assay type: in vivo, allium porrum
Procedure: Leek (allium porrum var. Parton) seeds were put in an erlenmeyer flask with a spinning stirring magnet. A droplet of binder (glue) was added and distributed evenly amongst the seeds. Subsequently, a small amount of encrustment powder (X % mefenpyr-diethyl+[100−X]% inert filler material) was added and mixed through the seeds using the stirring magnet. A droplet of binder was added again and this procedure was repeated until all encrustment powder was stuck to the seeds. Seeds were dried subsequently.
The differently-treated seeds were sown in trays. After 9 days, the seedlings were sprayed with 4.0 g/l ioxynil using an atomizer. A dosage of 3 ml per tray was applied, equalizing 1200 g.a.i./hectare. At 6 days after spraying the number of collapsed seedlings was counted.

leek [4] = assay: Seed treatment of leek with safener (seed coating with rotostat system), field, early post-emergence application of ioxynil; assay type: in vivo, allium porrum
Procedure: (§3) Leek (allium porrum var. Shelton) seeds were coated in a commercial seed coating machine. Gradually, binder solution with X g of mefenpyr-diethyl was added. Seeds were dried subsequently.
The differently-treated seeds were sown in the field using commercial sowing equipment. After 25 days, the seedlings were sprayed with a standard formulation of ioxynil (®Totril) at an application rate of 112 g a.i./ha ioxynil. At 15 days after spraying the number of collapsed seedlings was counted.

leek [5] = assay: Mefenpyr safening Prometryn damage in leek (seed treatment); assay type: in vivo, allium porrum; conditions: prometryn (Gesagard) 750 g a.i./ha 10 days after seeding
Procedure: as §3
The differently-treated seeds were sown in the field using commercial sowing equipment. […]
Leek seeds (allium porrum, var. Shelton or Parton) were treated with safener, sown, treated with a herbicide and evaluated as described in Example 6 with the difference that the herbicide is prometryn.

onion [6] = assay: Mefenpyr safening oxyfluorfen damage in onion (seed treatment); assay type: in vivo, Allium cepa; conditions: variety Diamante, oxyfluorfen (Goal) 7.5 g a.i./ha 9 days after seeding
Procedure: (§4) Onion (Allium cepa var. Brioso) seeds were encrusted in a commercial seed coating machine. Approximately 1 ml of binder was added. Subsequently, a small amount of encrustment powder (X % Naphthalic Anhydride+[100−X]% inert filler material) was added. Binder was added again and this procedure was repeated until all encrustment powder was stuck to the seeds. Seeds were dried subsequently.
(§5) The differently-treated seeds were sown in trays. After 9 days, the seedlings were sprayed with 1.0 g/l ioxynil using an atomizer. A dosage of 3 ml per tray was applied, equalizing 300 g.a.i./hectare. At 3 days after spraying the number of collapsed seedlings was counted.
Onion (Allium cepa var. Diamante) were treated with safener, sown, treated with a herbicide and evaluated as described in Example 5 with the difference that the herbicide is oxyfluorfen and the safener is mefenpyr-diethyl.

onion [7] = assay: Benoxacor safening bromoxynil damage in onion (seed treatment); assay type: in vivo, Allium cepa; conditions: variety Diamante; safener 0 g a.i./kg seed; bromoxynil-octanoate (Buctril) 25 g a.i./ha 10 days after seeding
Procedure: as §4
The differently-treated seeds were sown in trays. After 9 days, the seedlings were sprayed with 1.0 g/l ioxynil using an atomizer. A dosage of 3 ml per tray was applied, equalizing 300 g.a.i./hectare. […]
Onion (Allium cepa var. Diamante) were treated with safener, sown, treated with a herbicide and evaluated as described in Example 5 with the difference that the herbicide is bromoxynil-octanoate and the safener is benoxacor.

leek [8] = assay: Oxabetrinil safening ioxynil damage in leek (seed treatment); assay type: in vivo, allium porrum
onion [9] = assay: Seed treatment of onion with safener (encrustment with rotostat), early post-emergence application of ioxynil; assay type: in vivo, Allium cepa; conditions: var. Brioso
Procedure: as §4, §5

leek [10] = assay: Fluxofenim safening ioxynil damage in leek (seed treatment); assay type: in vivo, allium porrum

With `COc1cc(OC)nc(NC(=O)NS(=O)(=O)c2cc(NC=O)ccc2C(=O)N(C)C)n1` [H4, N,N-dimethyl-2-[3-(4,6-dimethoxypyrimidin-2-yl)ureidosulfonyl]-4-formylaminobenzamide] the “Damage to onion (in %) variety Blanco Duro” value (onion [1]; in vivo) was 10%, the “Damage to onion (in %) variety Brioso” value (onion [1]; in vivo) was 30% and the “Damage to leek (in %) variety Harston” value (leek [2]; in vivo) was 50%. The “Damage to leek (in %) variety Kenton” value (leek [2]; in vivo) was 50%.

With `COC(=O)c1ccc(CNS(C)(=O)=O)cc1S(=O)(=O)NC(=O)Nc1nc(OC)cc(OC)n1` [H3, methyl 2-[3-(4,6-dimethoxypyrimidin-2-yl)ureidosulfonyl]-4-methanesulfonylaminomethylbenzoate] the “Damage to onion (in %) variety Blanco Duro” value (onion [1]; in vivo) was 70%, the “Damage to onion (in %) variety Brioso” value (onion [1]; in vivo) was 50% and the “Damage to leek (in %) variety Harston” value (leek [2]; variety Harston, 50 g a.i./ha, scoring 40 DAT) was 50%. For the same compound, the “Damage to leek (in %) variety Kenton” value (leek [2]; variety Kenton, 50 g a.i./ha, scoring 40 DAT) was 45%.

In the case of `CCOC(=O)C1=NN(c2ccc(Cl)cc2Cl)C(C)(C(=O)OCC)C1` (centres unmarked) [mefenpyr-diethyl, ethyl 1-(2,4-dichlorophenyl)-5-(ethoxycarbonyl)-5-methyl-2-pyrazoline-3-carboxylate], the “damage (collapsed seedlings) versus control-treated seedlings” value (leek [3]; var. Parton, mefenpyr seed treatment, then ioxynil 1200 g a.i./ha, 6 days after application) is reported as “significantly less damage”, the “Damage to leek (in %) 15 DAT” value (leek [4]; var. Shelton, field, ST3 = seed treatment 2.0 g a.i./kg mefenpyr-diethyl, ioxynil 112 g a.i./ha 25 days after seeding, 15 DAT) is reported as “significantly reduced the amount of damage” and the “Damage to seedling (% collapsed) at 6 DAT” value (leek [5]; variety Parton, safener mefenpyr-diethyl 1 g a.i./kg seed) is reported as 3%. The “Damage to seedling (% collapsed) at 6 DAT” value (leek [5]; variety Parton, safener mefenpyr-diethyl 2 g a.i./kg seed) was 1%, the “Damage to seedling (% collapsed) at 6 DAT” value (leek [5]; variety Shelton, safener mefenpyr-diethyl 1 g a.i./kg seed) was 2% and the “Damage to seedling (% collapsed) at 6 DAT” value (leek [5]; variety Shelton, safener mefenpyr-diethyl 2 g a.i./kg seed) was 1%. For the same compound, the “Damage to seedling (% collapsed) at 5 DAT” value (onion [6]; safener mefenpyr-diethyl 2 g a.i./kg seed) was 64%, the “Damage to seedling (% collapsed) at 5 DAT” value (onion [6]; safener mefenpyr-diethyl 4 g a.i./kg seed) was 49% and the “Damage to seedling (% collapsed) at 5 DAT” value (onion [6]; safener mefenpyr-diethyl 8 g a.i./kg seed) was 39%.

With `CCOc1cc(Oc2ccc(C(F)(F)F)cc2Cl)ccc1[N+](=O)[O-]` [H6, oxyfluorfen] the “Damage to seedling (% collapsed) at 5 DAT” value (onion [6]; safener 0 g a.i./kg seed) was 83%.

With `CCCCCCCC(=O)Oc1c(Br)cc(C#N)cc1Br` [H7, bromoxynil-octanoate] the “Damage to seedling (% collapsed) at 5 DAT” value (onion [7]) was 19%.

In the case of `N#C/C(=N\OCC1OCCO1)c1ccccc1` [oxabetrinil, (Z)-1,3-dioxolan-2-ylmethoxyimino(phenyl)-acetonitrile], the “Damage to seedling (% collapsed) at 7 DAT” value (leek [8]; variety Shelton, safener oxabetrinil 1 g a.i./kg seed, ioxynil (Totril) 112 g a.i./ha 10 days after seeding) is reported as 25%, the “Damage to seedling (% collapsed) at 7 DAT” value (leek [8]; variety Shelton, safener oxabetrinil 2 g a.i./kg seed, ioxynil (Totril) 112 g a.i./ha 10 days after seeding) is reported as 27% and the “Damage to seedling (% collapsed) at 7 DAT” value (leek [8]; variety Shelton, safener oxabetrinil 4 g a.i./kg seed, ioxynil (Totril) 112 g a.i./ha 10 days after seeding) is reported as 13%.

With `N#Cc1cc(I)c(O)c(I)c1` [H1, 4-hydroxy-3,5-di-iodobenzonitrile] the “Damage to leek (in %) 6 DAT” value (leek [3]; in vivo) was 52%, the “Damage to onion (in %) variety Blanco Duro” value (onion [1]; in vivo) was 55% and the “Damage to onion (in %) variety Brioso” value (onion [1]; in vivo) was 45%. For the same compound, the “Damage to onion (in %) 3 DAT” value (onion [9]; no safener, ioxynil 300 g a.i./ha sprayed 9 days after seeding, collapsed seedlings 3 DAT) was 57%, the “Damage to leek (in %) variety Harston” value (leek [2]; in vivo) was 40% and the “Damage to leek (in %) variety Kenton” value (leek [2]; in vivo) was 55%. The “Damage to leek (in %) 15 DAT” value (leek [4]; in vivo) was 6%, the “Damage to seedling (% collapsed) at 7 DAT” value (leek [8]; in vivo) was 45% and the “Damage to seedling (% collapsed) at 5 DAT” value (leek [10]; in vivo) was 16%.

In the case of `FC(F)(F)C(=NOCC1OCCO1)c1ccc(Cl)cc1` [fluxofenim, 1-(4-chlorophenyl)-2,2,2-trifluoro-1-ethanone O-(1,3-dioxolan-2-ylmethyl)oxime], the “Damage to seedling (% collapsed) at 5 DAT” value (leek [10]; variety Shelton, safener fluxofenim 1 g a.i./kg seed, ioxynil (Totril) 112 g a.i./ha 10 days after seeding) is reported as 10% and the “Damage to seedling (% collapsed) at 5 DAT” value (leek [10]; variety Shelton, safener fluxofenim 2 g a.i./kg seed, ioxynil (Totril) 112 g a.i./ha 10 days after seeding) is reported as 6%.

`CON(C)C(=O)Nc1ccc(Cl)c(Cl)c1` [H2, linuron] was tested, and the “Damage to onion (in %) variety Blanco Duro” value (onion [1]; variety Blanco Duro, 250 g a.i./ha, scoring 40 DAT) was 100%, the “Damage to onion (in %) variety Brioso” value (onion [1]; variety Brioso, 250 g a.i./ha, scoring 40 DAT) was 30% and the “Damage to leek (in %) variety Harston” value (leek [2]; variety Harston, 250 g a.i./ha, scoring 40 DAT) was 20%. For the same compound, the “Damage to leek (in %) variety Kenton” value (leek [2]; variety Kenton, 250 g a.i./ha, scoring 40 DAT) was 20%.

For `O=C1OC(=O)c2cccc3cccc1c23` [naphthalic anhydride, 1,8-naphthalenedicarboxylic anhydride], the “damage (collapsed seedlings) versus control-treated seedlings” value (onion [9]; naphthalic anhydride seed treatment, then ioxynil 300 g a.i./ha, after 3 days) was “significantly less damage”.
